US20250197359A1, “CANNABINOID RECEPTOR MODULATING COMPOUNDS” (The U.S.A., as Represented by the Secretary, Department of …, priority 2022, published 2025)

Legend:
[1] = target: T1, Brain/CB1 (Mus musculus, UniProt P47746); experiment: Functional GTPγS binding, Brain/CB1; type: biochemical
T1 construct: from tissue; host or cells: mouse brain membranes
From the text: Furthermore, the intermediates urea compounds 8a-m were chlorinated with phosphorus oxychloride in the presence of DIPEA base to form imidoyl chloride intermediate and reacted with acetamidine hydrochloride/methyl carbamimidothioate iodide/methyl carbamimidoselenoate iodide and other amines to furnish the target compounds (10a-34b) (Scheme 2, FIG. 2, Scheme 5, FIG. 5). The urea derivatives were converted to the thiourea derivatives 9a-9d by employing sodium thiosulfate. Compound 8a-b, 8e-f were converted to corresponding thiourea by employing sodium thiosulfate dissolved in water dioxane mixture and the reaction was heated to 85° C. for 2 h. […] The binding constant for the synthesized compounds were determined by using radioligand binding assay in mouse brain membranes as well as the target compounds were evaluated in vitro at the human CB1 receptor, stably expressed into Chinese hamster ovary (CHO) cells as well as mouse brain membrane CB1.

[2] = target: CB1 (UniProt P21554); experiment: CB1 radioligand binding assay; design: species or system human; conditions: read-out: Ki (CB1)
Outline: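 Radioligand binding to human CB1 stably expressed in CHO cells and to mouse brain membrane CB1 gave binding constants. For selected compounds, antagonism of CP55940-induced CB1 activation was measured in MPXNomad-CB1 HEK293 cells via cAMPNomad (cAMP) and ArresNomad (β-arrestin) fluorescent biosensors.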

T1 sequence (P47746 whole entry): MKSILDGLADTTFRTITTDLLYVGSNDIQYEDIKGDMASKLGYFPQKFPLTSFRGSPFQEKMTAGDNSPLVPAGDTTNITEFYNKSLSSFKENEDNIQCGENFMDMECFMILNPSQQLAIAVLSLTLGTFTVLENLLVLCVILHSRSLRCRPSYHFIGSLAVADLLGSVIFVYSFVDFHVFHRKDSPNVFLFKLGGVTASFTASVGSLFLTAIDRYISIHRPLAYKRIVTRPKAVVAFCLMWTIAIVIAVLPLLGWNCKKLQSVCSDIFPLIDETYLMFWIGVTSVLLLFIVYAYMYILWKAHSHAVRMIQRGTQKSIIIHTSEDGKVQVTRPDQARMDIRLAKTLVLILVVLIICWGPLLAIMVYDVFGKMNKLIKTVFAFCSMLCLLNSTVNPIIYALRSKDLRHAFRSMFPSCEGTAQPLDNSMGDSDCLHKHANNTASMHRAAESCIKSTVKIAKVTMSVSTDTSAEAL

SMILES | IC50 [1] [nM] | Ki [2] [nM]
C/C(N)=N\C(=N\S(=O)(=O)c1ccc(I)cc1)N1CCC(c2ccccc2)C(c2ccc(Cl)cc2)=N1 (stereo not shown) [Compound 10i, (Z)—N—((E)-1-aminoethylidene)-3-(4-chlorophenyl)-N′-((4-iodophenyl)sulfonyl)-4-phenyl-5,6-dihydropyridazine-1 (4H)-carboximidamide] | 118 | 43
C/C(N)=N\C(=N\S(=O)(=O)c1ccc(F)cc1)N1CCC(c2ccccc2)C(c2ccc(Cl)cc2)=N1 (stereo not shown) [Compound 10j, (Z)—N—((E)-1-aminoethylidene)-3-(4-chlorophenyl)-N′-((4-fluorophenyl)sulfonyl)-4-phenyl-5,6-dihydropyridazine-1 (4H)-carboximidamide] | 182 | 59.3
C/C(N)=N\C(=N\S(=O)(=O)c1ccccc1C(F)(F)F)N1CCC(c2ccccc2)C(c2ccc(Cl)cc2)=N1 (stereo not shown) [Compound 10k, (Z)—N—((E)-1-aminoethylidene)-3-(4-chlorophenyl)-4-phenyl-N′-((2-(trifluoromethyl)phenyl)sulfonyl)-5,6-dihydropyridazine-1 (4H)-carboximidamide] | 125 | 50.6
N/C(=N\C(=N\S(=O)(=O)c1ccc(C(F)(F)F)cc1)N1CCC(c2ccccc2)C(c2ccc(Cl)cc2)=N1)c1ccccc1 (stereo not shown) [Compound 10r, (Z)—N—((Z)-amino (phenyl)methylene)-3-(4-chlorophenyl)-4-phenyl-N′-((4-(trifluoromethyl)phenyl)sulfonyl)-5,6-dihydropyridazine-1 (4H)-carboximidamide] | 197 | 33
N/C(=N\C(=N\S(=O)(=O)c1ccc(C(F)(F)F)cc1)N1CCC(c2ccccc2)C(c2ccc(Cl)cc2)=N1)c1ccccc1F (stereo not shown) [Compound 10t, (Z)—N—((Z)-amino (2-fluorophenyl)methylene)-3-(4-chlorophenyl)-4-phenyl-N′-((4-(trifluoromethyl)phenyl)sulfonyl)-5,6-dihydropyridazine-1 (4H)-carboximidamide] | 25 | 7.4
N/C(=N\C(=N\S(=O)(=O)c1ccc(C(F)(F)F)cc1)N1CCC(c2ccccc2)C(c2ccc(Cl)cc2)=N1)c1ccc(F)cc1 (stereo not shown) [Compound 10u, (Z)—N—((Z)-amino (4-fluorophenyl)methylene)-3-(4-chlorophenyl)-4-phenyl-N′-((4-(trifluoromethyl)phenyl)sulfonyl)-5,6-dihydropyridazine-1 (4H)-carboximidamide] | 107 | 27.3
N/C(=N\C(=N\S(=O)(=O)c1ccc(C(F)(F)F)cc1)N1CCC(c2ccccc2)C(c2ccc(Cl)cc2)=N1)c1ccccn1 (stereo not shown) [Compound 10v, (Z)—N—((Z)-amino (pyridin-2-yl)methylene)-3-(4-chlorophenyl)-4-phenyl-N′-((4-(trifluoromethyl)phenyl)sulfonyl)-5,6-dihydropyridazine-1 (4H)-carboximidamide] | 26 | 7
N/C(=N\C(=N\S(=O)(=O)c1ccc(C(F)(F)F)cc1)N1CCC(c2ccccc2)C(c2ccc(Cl)cc2)=N1)c1cccs1 (stereo not shown) [Compound 10w, (Z)—N—((Z)-amino (thiophen-2-yl)methylene)-3-(4-chlorophenyl)-4-phenyl-N′-((4-(trifluoromethyl)phenyl)sulfonyl)-5,6-dihydropyridazine-1 (4H)-carboximidamide] | 234 | 140
CC(C)(C)/C(N)=N/C(=N/S(=O)(=O)c1ccc(C(F)(F)F)cc1)N1CCC(c2ccccc2)C(c2ccc(Br)cc2)=N1 (stereo not shown) [Compound 10x, (Z)—N—((Z)-1-amino-2,2-dimethylpropylidene)-3-(4-bromophenyl)-4-phenyl-N′-((4-(trifluoromethyl)phenyl)sulfonyl)-5,6-dihydropyridazine-1 (4H)-carboximidamide] | 35 | 20.3
C/C(N)=N/C(=N/S(=O)(=O)c1ccc(C(F)(F)F)cc1)N1CCC(c2ccccc2)C(c2ccc(Br)cc2)=N1 (stereo not shown) [Compound 10y, (Z)—N—((Z)-1-aminoethylidene)-3-(4-bromophenyl)-4-phenyl-N′-((4-(trifluoromethyl)phenyl)sulfonyl)-5,6-dihydropyridazine-1 (4H)-carboximidamide] | 92 | 57.2
N/C(=N\C(=N\S(=O)(=O)c1ccc(C(F)(F)F)cc1)N1CCC(c2ccccc2)C(c2ccc(Br)cc2)=N1)c1ccccc1F (stereo not shown) [Compound 10z, (Z)—N—((Z)-amino (2-fluorophenyl)methylene)-3-(4-bromophenyl)-4-phenyl-N′-((4-(trifluoromethyl)phenyl)sulfonyl)-5,6-dihydropyridazine-1 (4H)-carboximidamide] | 49 | 8.25
N/C(=N\C(=N\S(=O)(=O)c1ccc(C(F)(F)F)cc1)N1CCC(c2ccccc2)C(c2ccc(Br)cc2)=N1)c1ccc(F)cc1F (stereo not shown) [Compound 10za, (Z)—N—((Z)-amino (2,4-difluorophenyl)methylene)-3-(4-bromophenyl)-4-phenyl-N′-((4-(trifluoromethyl)phenyl)sulfonyl)-5,6-dihydropyridazine-1 (4H)-carboximidamide] | 26 | 9.18
CC(C)(C)/C(N)=N/C(=N/S(=O)(=O)c1ccc(C(F)(F)F)cc1)N1CCC(c2ccccc2)C(c2ccc(F)cc2)=N1 (stereo not shown) [Compound 10zb, (Z)—N—((Z)-1-amino-2,2-dimethylpropylidene)-3-(4-fluorophenyl)-4-phenyl-N′-((4-(trifluoromethyl)phenyl)sulfonyl)-5,6-dihydropyridazine-1 (4H)-carboximidamide] | 478 | 75.6
N/C(=N\C(=N\S(=O)(=O)c1ccc(C(F)(F)F)cc1)N1CCC(c2ccccc2)C(c2ccc(F)cc2)=N1)c1ccccc1F (stereo not shown) [Compound 10zd, (Z)—N—((Z)-amino (2-fluorophenyl)methylene)-3-(4-fluorophenyl)-4-phenyl-N′-((4-(trifluoromethyl)phenyl)sulfonyl)-5,6-dihydropyridazine-1 (4H)-carboximidamide] | 115 | 26
N/C(=N\C(=N\S(=O)(=O)c1ccc(C(F)(F)F)cc1)N1CCC(c2ccccc2)C(c2ccc(F)cc2)=N1)c1ccc(F)cc1F (stereo not shown) [Compound 10ze, (Z)—N—((Z)-amino (2,4-difluorophenyl)methylene)-3-(4-fluorophenyl)-4-phenyl-N′-((4-(trifluoromethyl)phenyl)sulfonyl)-5,6-dihydropyridazine-1 (4H)-carboximidamide] | 450 | 58.6
N/C(=N\C(=N\S(=O)(=O)c1ccc(C(F)(F)F)cc1)N1CCC(c2ccccc2)C(c2ccc(F)cc2)=N1)c1ccccn1 (stereo not shown) [Compound 10zf, (Z)—N—((Z)-amino (pyridin-2-yl)methylene)-3-(4-fluorophenyl)-4-phenyl-N′-((4-(trifluoromethyl)phenyl)sulfonyl)-5,6-dihydropyridazine-1 (4H)-carboximidamide] | 209 | 41.7
CS/C(N)=N/C(=N/S(=O)(=O)c1ccc(C(F)(F)F)cc1)N1CCC(c2ccccc2)C(c2ccc(F)cc2)=N1 (stereo not shown) [Compound 11j, methyl (E)-N′—((Z)-(3-(4-fluorophenyl)-4-phenyl-5,6-dihydropyridazin-1 (4H)-yl)(((4-(trifluoromethyl)phenyl)sulfonyl)imino)methyl)carbamimidothioate] | > 1000 | 93
N#Cc1ccc(S(=O)(=O)/N=C(/N=C2\CCCCN2)N2CCC(c3ccccc3)C(c3ccc(Cl)cc3)=N2)cc1 (stereo not shown) [Compound 13b, (Z)-3-(4-chlorophenyl)-N′-((4-cyanophenyl)sulfonyl)-4-phenyl-N—((E)-piperidin-2-ylidene)-5,6-dihydropyridazine-1 (4H)-carboximidamide] | 325 | 19.8
O=S(=O)(/N=C(/N=C1\CCCCN1)N1CCC(c2ccccc2)C(c2ccc(Cl)cc2)=N1)c1ccc2ccccc2c1 (stereo not shown) [Compound 15, (Z)-3-(4-chlorophenyl)-N′-(naphthalen-2-ylsulfonyl)-4-phenyl-N—((E)-piperidin-2-ylidene)-5,6-dihydropyridazine-1 (4H)-carboximidamide] | 287 | 34.1
COC(=O)CN/C(=N/S(=O)(=O)c1ccc(C(F)(F)F)cc1)N1CCC(c2ccccc2)C(c2ccc(Cl)cc2)=N1 (stereo not shown) [Compound 23, methyl (Z)-((3-(4-chlorophenyl)-4-phenyl-5,6-dihydropyridazin-1 (4H)-yl)(((4-(trifluoromethyl)phenyl)sulfonyl)imino)methyl)glycinate] | 8.1 | 4.37
NC(=O)CN/C(=N/S(=O)(=O)c1ccc(C(F)(F)F)cc1)N1CCC(c2ccccc2)C(c2ccc(Cl)cc2)=N1 (stereo not shown) [Compound 24, (Z)-2-(3-(4-chlorophenyl)-4-phenyl-N′-((4-(trifluoromethyl)phenyl)sulfonyl)-1,4,5,6-tetrahydropyridazine-1-carboximidamido)acetamide] | 33 | 10
NC(=O)CN/C(=N/S(=O)(=O)c1ccc(Cl)cc1)N1CCC(c2ccccc2)C(c2ccc(Cl)cc2)=N1 (stereo not shown) [Compound 25, (Z)-2-(3-(4-chlorophenyl)-N′-((4-chlorophenyl)sulfonyl)-4-phenyl-1,4,5,6-tetrahydropyridazine-1-carboximidamido)acetamide] | 207 | 41.1
C/C(N)=N\C(=N\S(=O)(=O)c1ccc(C)cc1)N1CCC(c2ccccc2)C(c2ccc(Cl)cc2)=N1 (stereo not shown) [Compound 101, (Z)—N—((E)-1-aminoethylidene)-3-(4-chlorophenyl)-4-phenyl-N′-tosyl-5,6-dihydropyridazine-1 (4H)-carboximidamide] | > 1000 | 84
